Test results from patent US20170095578A1, “CT SCANS USING GADOLINIUM-BASED CONTRAST AGENT” (UNIVERSITY OF MASSACHUSETTS MEDICAL SCHOOL, priority 2014, published 2017).

Columns and labels:
[1] = gadoxetate disodium-enhanced MRI of the same patient; type: in vivo, human; settings: MRI 20 minutes following intravenous administration
Description: (§1) A patient was undergoing evaluation for living liver donation.
FIG. 7B is a gadoxetate disodium-enhanced MRI image of the same patient. […] The MRI of FIG. 7B was obtained 20 minutes following intravenous administration of gadoxetate disodium.

[2] = gadoxetate disodium-enhanced CT scan of a human patient; type: in vivo
Description: as §1
FIG. 7A is an enhanced CT scan image of their liver using gadoxetate disodium as a contract agent according to principles of the invention. […] In this particular patient the CT scan was obtained 99 minutes after the gadoxetate disodium-enhanced MRI shown in FIG. 7B, a relatively long interval to image gallbladder filling. A better contrast resolution is expected when using shorter interval. The highest concentration of contrast within the gallbladder, and therefore the best contrast resolution, is expected between 30 to 60 minutes from the time of intravenous injection of contrast.
The CT scan technique used included a slice thickness of 4.00 mm, and a field of view of 283.0 mm. The x-ray radiation was generated using 120 kV and a current of 182 mA, with a tube current of 182 mA and tube current-time product of 213 mAs.

Q: For CCOc1ccc(CC(CN(CCN(CC(=O)[O-])CC(=O)[O-])CC(=O)[O-])N(CC(=O)[O-])CC(=O)[O-])cc1.[Gd+3].[Na+].[Na+] (stereo not drawn) [gadoxetate disodium, Gadoxetate disodium], which “visualization of excreted contrast in the gallbladder on MRI” value [1] is on record?
A: The value was “excreted contrast within the gallbladder lumen”.

Q: What about the “gallbladder opacification under CT imaging conditions” value ([2]; following intravenous injection) of the same compound?
A: The value was “clearly demonstrates gallbladder opacification”.

Q: And the “visualization of excreted hepatobiliary contrast in the gallbladder on CT” value ([2]; patient, arterial phase CT at 120 kV, 182 mA, 99 minutes after the gadoxetate disodium-enhanced MRI)?
A: The value was “anti-dependant hyperdensity within the gallbladder fundus”.
